Among the data in ChEMBL document CHEMBL5214915 (Eur J Med Chem, 2021) are MIC values, retold here.

The term MIC denotes the lowest concentration found to suppress growth.

Converted amounts (≈) assume the structure as drawn.

Holding throughout (assay type): functional
Assay [1] concerns Mycobacterium tuberculosis variant bovis. As to the kind of experiment: Antibacterial activity against Mycobacterium bovis BCG incubated for 1 week in 7H9/ADC/Tw medium in presence of 0.1 mM indole.
Assay [2] has the same test system. As to the kind of experiment: Antibacterial activity against Mycobacterium bovis BCG incubated for 1 week in 7H9/ADC/Tw medium in presence of 0.1 mM Trp.
Assay [3] has the same test system. As to the kind of experiment: Antibacterial activity against Mycobacterium bovis BCG incubated for 1 week in 7H9/ADC/Tw medium.
Assay [4] has the same test system. As to the kind of experiment: Antibacterial activity against Mycobacterium bovis BCG incubated for 1 week in 7H9/ADC/Tw medium in presence of 0.5 mM chorismate.
Assay [5] has the same test system. Briefly: Antibacterial activity against Mycobacterium bovis BCG incubated for 1 week in 7H9/ADC/Tw medium in presence of 0.1 mM chorismate.
Assay [6] has the same test system. As to the kind of experiment: Antibacterial activity against Mycobacterium bovis BCG incubated for 1 week in 7H9/ADC/Tw medium in presence of 0.1 mM anthranilate.
Setting [7] is: Mycobacterium tuberculosis variant bovis, BCG, 168 h, read-out: MIC.

For `Nc1cccc(F)c1C(=O)O`, the MIC in assay [1] (setting [7]) is over 50 µM; in assay [2] (setting [7]) it was over 50 µM; in assay [3] (setting [7]), 6.4 µM (≈ 0.993 µg/mL); in assay [4] (setting [7]) it was 6.4 µM; in assay [5] (setting [7]) it was 6.4 µM; in assay [6] (setting [7]), over 50 µM.

As to `Nc1cccc(F)c1C(=O)NNc1c(Cl)cc(Cl)cc1Cl`, the MIC in assay [1] (setting [7]) was over 50 µM; in assay [2] (setting [7]), over 50 µM; in assay [3] (setting [7]), 22.9 µM (≈ 7.98 µg/mL); in assay [4] (setting [7]) it was 45.9 µM; in assay [5] (setting [7]) it was 45.9 µM; in assay [6] (setting [7]), over 50 µM.

As to `Nc1cccc(F)c1C(=O)NNc1ccccc1`, the MIC is over 50 µM in assay [1] (setting [7]); over 50 µM in assay [2] (setting [7]); 2 µM (≈ 0.491 µg/mL) in assay [3] (setting [7]); 8.15 µM in assay [4] (setting [7]); 8.15 µM in assay [5] (setting [7]); over 50 µM in assay [6] (setting [7]).

For `Cl.Nc1cccc(F)c1C(=O)NNc1ccccc1`, the MIC in assay [1] is over 50 µM; in assay [2], over 50 µM; in assay [3], 3.5 µM; in assay [4] it was 14.2 µM; in assay [5], 7.1 µM; in assay [6] it was over 50 µM.
